Experimental data taken from US8367328B2, “Method for synthesizing DNA” (Takara Bio Inc., priority 1998, dated 2013).

Tested on: ExTaq DNA Polymerase
Assay: PCR with ExTaq DNA Polymerase in the presence of cationic complexes
Assay type: biochemical
Settings: for Amount of amplified DNA relative to No Addition (=1), ExTaq: 100 pg E. coli JM109 genomic DNA, primers Eco1/Eco2, 30 cycles 98°C 5 s–68°C 1 min, FM-BIO 100
Description: Using hexaamminecobalt (III) chloride ([Co(NH3)6]Cl3) (manufactured by Sigma), tris(ethylenediamine)cobalt (III) chloride ([Co(C2H8N2)3]Cl3) (manufactured by Aldrich), or tris(ethylenediamine)rhodium (III) trichloride•trihydrate ([Rh(C2H8N2)3]Cl3.3H2O) (manufactured by Aldrich), the effects on the amplification reaction by various kinds of DNA polymerases were examined. As the DNA polymerases, TaKaRa Taq DNA Polymerase (hereinafter referred to as “Taq DNA Polymerase” manufactured by Takara Shuzo Co., Ltd.), Pyrobest DNA Polymerase (manufactured by Takara Shuzo Co., Ltd.) and Ex Taq DNA Polymerase (manufactured by Takara Shuzo Co., Ltd.) were used.
A reaction mixture comprising Escherichia coli JM109 genomic DNA as a template, primers Eco1 and Eco2 as a primer pair, and DNA polymerase was prepared, and PCR was carried out. The compositions of the reaction mixture for each enzyme are as follows.
a reaction mixture comprising 5 μl of 10-fold concentrated buffer for TaKaRa ExTaq DNA Polymerase (manufactured by Takara Shuzo Co., Ltd.), 0.2 mM each of dATP, dCTP, dGTP and dTTP, 100 pg of Escherichia coli JM109 genomic DNA, 1.25 U of TaKaRa EX-Taq DNA Polymerase, and 10 pmol each of primers Eco1 and Eco2 (a final volume being 50 μl).
Further, an aqueous solution of the above-mentioned complexes each so as to have a final concentration of 50 μM, 100 μM, or 200 μM was added to the above reaction mixture.
The reaction was carried out in Fast mode by using TaKaRa PCR Thermal Cycler Personal (manufactured by Takara Shuzo Co., Ltd.). The reaction conditions are as follows. When using Taq DNA Polymerase and Pyrobest DNA Polymerase, the reaction in 30 cycles was carried out for each of these reaction mixtures, wherein one cycle of reaction comprises a process consisting of 98° C., 5 seconds—68° C., 2 minutes, and when using ExTaq DNA Polymerase, the reaction in 30 cycles was carried out for each of these reaction mixtures, wherein one cycle of reaction comprises a process consisting of 98° C., 5 seconds—68° C., 1 minute. After the termination of the reaction, 5 μl of the resulting reaction mixture was subjected to electrophoresis on 2% agarose gel containing ethidium bromide in an amount of 0.00005%. The gel after the electrophoresis was subjected to ultraviolet irradiation to visualize the band ascribed to the amplified product, whereby an amplified fragment was confirmed. The amount of amplified DNA was numerically explained by using a fluorescent image analyzer FM-BIO 100 (manufactured by Takara Shuzo Co., Ltd.). […]
After the termination of the reaction, 5 μL of the resulting reaction mixture was subjected to electrophoresis on 2% agarose gel containing ethidium bromide in an amount of 0.00005%. The gel after the electrophoresis was subjected to ultraviolet irradiation to visualize the band ascribed to the amplified product, whereby an amplified fragment was confirmed.
The DNA polymerases used and the composition for the reaction mixture were similar to those in Example 17, except for the cationic complex, where in cases of using Taq DNA Polymerase and Pyrobest DNA Polymerase, hexaamminecobalt (III) chloride was added so as to have a final concentration of 100 μM, or in a case of using ExTaq DNA Polymerase, hexaamminecobalt (III) chloride was added so as to have a final concentration of 50 μM, respectively. Further, the amount of template DNA was added so as to be 1 pg, 5 pg, 10 pg, 100 pg, or 1 ng, respectively.
The reaction was carried out in Fast mode by using TaKaRa PCR Thermal Cycler Personal. The reaction conditions are as follows. When using Taq DNA Polymerase and Pyrobest DNA Polymerase, the reaction in 30 cycles was carried out, wherein one cycle of reaction comprises a process consisting of 98° C., 5 seconds—68° C., 2 minutes. When using ExTaq DNA Polymerase, the reaction in 30 cycles was carried out, wherein one cycle of reaction comprises a process consisting of 98° C., 5 seconds—68° C., 1 minute. […]

SMILES	Amount of amplified DNA relative to No Addition (=1), ExTaq (complex 50 μM)	Amount of amplified DNA relative to No Addition (=1), ExTaq (complex 100 μM)	Amount of amplified DNA relative to No Addition (=1), ExTaq (complex 200 μM)	Amplification with one-half the usual enzyme amount versus usual amount without addition (ExTaq 0.625 U + 50 μM complex vs 1.25 U without addition)	Primer amount with which a fragment can still be amplified (ExTaq, 50 μM complex, primers 2–20 pmol tested, no amplification without addition) [pmol]	Amount of template DNA at which amplification was still possible (ExTaq, 50 μM complex, templates 1 pg–1 ng tested, no amplification at 1 pg without addition) [pg]	Amplification in low-magnesium reaction mixture (ExTaq, 1.25 mM magnesium chloride (usual 2 mM), 10 μM complex, no amplification without addition)
NCCN.NCCN.NCCN.O.O.O.[Cl][Rh]([Cl])[Cl] [[Rh(H2NCH2CH2NH2)3]Cl3, tris(ethylenediamine)rhodium (III) trichloride•trihydrate]	1.3	1.5	1.7	–	–	–	–
NCCN.NCCN.NCCN.[Cl-].[Cl-].[Cl-].[Co+3] [[Co(H2NCH2CH2NH2)3]Cl3, tris(ethylenediamine)cobalt (III) chloride]	2.0	2.0	–	–	–	–	–
N.N.N.N.N.N.[Cl-].[Cl-].[Cl-].[Co+3] [[Co(NH3)6]Cl3, hexaamminecobalt (III) chloride]	1.9	1.9	–	almost the same level	2.5	1	allowed to amplify
